# Experimental data reported in ChEMBL document CHEMBL3046269, “The repelling effect of plant secondary metabolites on water voles, Arvicola amphibius” (2013).
# Activity calls are given as the source filed them. No cut-off for these calls is given here.
# Columns and labels:
# Arvicola amphibius [1] = experiment: Herbivore repellent activity against adult Arvicola amphibius assessed as time required to enter the test box with apple pieces for first time by T-maze test (reference value: 438.43 +/-312.37 secs); type: functional
# Arvicola amphibius [2] = experiment: Herbivore repellent activity against adult Arvicola amphibius assessed as duration of stay within test box with apple pieces by T-maze test (reference value: 59.20 +/-31.75%); type: functional
# Arvicola amphibius [3] = experiment: Herbivore repellent activity against adult Arvicola amphibius assessed as time required to enter the test box with apple pieces for first time by T-maze test (reference value: 277.50 +/-166.07 secs); type: functional
# Arvicola amphibius [4] = experiment: Herbivore repellent activity against adult Arvicola amphibius assessed as duration of stay within test box with apple pieces by T-maze test (reference value: 59.19 +/-19.83%); type: functional
# Arvicola amphibius [5] = experiment: Herbivore repellent activity against adult Arvicola amphibius assessed as decrease in frequency of entry of test box with apple pieces by T-maze test; type: functional, organism-based
# Arvicola amphibius [6] = experiment: Herbivore repellent activity against adult Arvicola amphibius assessed as duration of stay within test box with apple pieces by T-maze test (reference value: 85.30 +/-13.79%); type: functional
# Arvicola amphibius [7] = experiment: Herbivore repellent activity against adult Arvicola amphibius assessed as time required to enter the test box with apple pieces for first time by T-maze test (reference value: 268.50 +/-417.85 secs); type: functional
# Arvicola amphibius [8] = experiment: Herbivore repellent activity against adult Arvicola amphibius assessed as duration of stay within test box with apple pieces by T-maze test (reference value: 56.72 +/-13.89%); type: functional
# Arvicola amphibius [9] = experiment: Herbivore repellent activity against adult Arvicola amphibius assessed as time required to enter the test box with apple pieces for first time by T-maze test (reference value: 380.25 +/-321.70 secs); type: functional
# Arvicola amphibius [10] = experiment: Herbivore repellent activity against adult Arvicola amphibius assessed as duration of stay within test box with apple pieces by T-maze test (reference value: 75.53 +/-16.57%); type: functional
# Arvicola amphibius [11] = experiment: Herbivore repellent activity against adult Arvicola amphibius assessed as time required to enter the test box with apple pieces for first time by T-maze test (reference value: 240.75 +/-184.07 secs); type: functional
smiles,measurement,setting,value
CCCS [1-PROPANETHIOL],Time,Arvicola amphibius [1],996.29 s
same,Activity,Arvicola amphibius [2],40.8%
CC(C)=CCC/C(C)=C/CO [GERANIOL],Time,Arvicola amphibius [3],326.38 s
same,Activity,Arvicola amphibius [4],40.8%
CCCCCCCCCC(C)=O [METHYL NONYL KETONE],inhibition,Arvicola amphibius [5],Active
same,Activity,Arvicola amphibius [6],14.7%
same,Time,Arvicola amphibius [7],888.38 s
CCCCCCCCC(=O)O [NONANOATE],Activity,Arvicola amphibius [8],43.28%
same,Time,Arvicola amphibius [9],507.75 s
CCCCC(=O)O [VALERIC ACID],Activity,Arvicola amphibius [10],24.47%
same,Time,Arvicola amphibius [11],769.13 s
